# From patent US7977481B2, “Pyrimidinyl-thiophene kinase modulators” (SGX Pharmaceuticals, Inc., priority 2005, dated 2011)
# Biological target: T1, JAK2 KD kinase (Homo sapiens, UniProt O60674)
# T1 construct: JAK2 KD (kinase domain); inferred from Ni-NTA capture and imidazole elution; made in house; host or cells: Sf9 insect cells
# Experiment: JAK2 Luminescence-Based ATP Depletion Enzyme Assay (JAK2-WT)
# Assay type: biochemical
# Settings: 10 μM ATP
# Protocol: JAK2 Luminescence-Based ATP Depletion Enzyme Assay
# Materials: JAK3tide peptide substrate=GGEEEEYFELVKKKK (Biopeptide, San Diego, Calif.), ATP (Sigma Cat#A-3377, FW=551), HEPES buffer, pH 7.6, 10% Brij 35 (Calbiochem Cat#203728), MgCl2, Staurosporine (Streptomyces sp. Sigma Cat#85660-1MG), white Corning (Costar) 384-well flat bottom plate (VWR Cat#29444-088), JAK2 KD (kinase domain) or JAK2 JH1JH2 V617F kinase (see below), Kinase-Glo™ (Promega Cat#V6712).
# Stock Solutions: 5 mM JAK3tide peptide (9.86 mg/ml in 100 mM HEPES, pH 7.6), stored at −20° C.; 100 mM HEPES buffer, pH 7.6, 10% Brij 35; 10 mM ATP (5.51 mg/ml in 100 mM HEPES, pH 7.6) stored at −20° C. (diluted 50 μl into total of 10 ml 100 mM HEPES, pH 7.6, daily=50 μM ATP working stock); 100 mM MgCl2; 200 μM Staurosporine, 2× Kinase-Glo™ reagent (made fresh or stored at −20° C.).
# Standard Assay Conditions for 384-well format (20 μl kinase reaction, 40 μl detection reaction): 10 mM MgCl2; 0.1 mM JAK3tide peptide (or, 0.5 mM JAK3tide peptide for JAK2 JH1JH2 V617F assay); 1 μl test compound (in 100% DMSO); 0.4 μg/ml JAK2 KD kinase or 12 μg/ml JAK2 JH1JH2 V617F kinase; 10 μM ATP; 100 mM HEPES+0.01% Brij, pH 7.6. Positive controls contained 5% DMSO with no test compound. Negative controls contained 10 μM staurosporine. The kinase reactions were initiated at time t=0 by the addition of ATP. Kinase reactions were incubated at 21-23° C. for 30 min, after which 20 μl of Kinase-Glo™ reagent were added to each well to quench the kinase reaction and initiate the luminescence reaction. After a 20 min incubation at 21-23° C., the luminescence was detected in a plate-reading luminometer (Tecan Ultra Evolution).
# The pellet of Sf9 insect cells produced from a 6 L expression of Jak2 was resuspended in a buffer containing 50 mM Tris-HCl pH 8.5, 250 mM NaCl, 5% Glycerol, 0.2% β-octylglucoside, 5 mM β-mercaptoethanol (or with ligand added to the buffer eg. 5 mM ATP and 10 mM MgCl2; 0.05 mM compound of the invention) in a volume of approximately 40 mL per 1 L of original culture. One tablet of Roche Complete, EDTA-free protease inhibitor cocktail (Cat. #1873580) was added per 1 L of original culture. The suspension was then stirred for 1 hour at 4° C. Debris was removed by centrifugation for 30 minutes at 39,800 g at 4° C. The supernatant was decanted into a 500 mL beaker and 10 mL of 50% Qiagen Ni-NTA Agarose (Cat. #30250) pre-equilibrated in 50 mM Tris-HCl pH 8.5, 250 mM NaCl, 5% Glycerol, 0.2% β-octylglucoside, 5 mM β-mercaptoethanol was added and stirred for 30 minutes at 4° C. The sample was poured through a drip column at 4° C. and washed with 10 column volumes (CV) of 50 mM Tris-HCl pH 8.5, 250 mM NaCl, 5% Glycerol, 0.2% β-octylglucoside, 5 mM β-mercaptoethanol. The protein was eluted in 5 mL fractions using 5 CV of the same buffer containing 250-500 mM Imidazole. Fractions were pooled by SDS-PAGE analysis and the protein concentration determined by a Bradford assay. 5 mM TCEP was added to the pool and the protein sample was concentrated to ˜8 mL by centrifugation in an Amicon Ultra-15 10,000 Da MWCO centrifugal filter unit (Cat. #UFC901024). The concentrated protein was applied to a GE Healthcare HiLoad 16/60 Superdex 75 or 200 prep grade column (Cat. #17-1068-01, Cat. #17-1069-01) equilibrated in 20 mM Tris-HCl pH 8.5, 250 mM NaCl, and 1 mM DTT. Fractions were run on a SDS-PAGE gel and the cleanest fractions were pooled. The protein was concentrated to approximately 6.5-10 mg/mL. Samples in the final buffer (20 mM Tris-HCl pH 8.5, 250 mM NaCl, 1 mM DTT; [or with ligand added eg. 2 mM ATP/5 mM MgCl2 or 0.05 mM compound of the invention]) are delivered fresh to crystallization and stored at 4° C. or flash frozen in liquid nitrogen (as 120 μL aliquots) and stored at −80° C.
# T1 sequence (O60674 849-1124 limits assumed): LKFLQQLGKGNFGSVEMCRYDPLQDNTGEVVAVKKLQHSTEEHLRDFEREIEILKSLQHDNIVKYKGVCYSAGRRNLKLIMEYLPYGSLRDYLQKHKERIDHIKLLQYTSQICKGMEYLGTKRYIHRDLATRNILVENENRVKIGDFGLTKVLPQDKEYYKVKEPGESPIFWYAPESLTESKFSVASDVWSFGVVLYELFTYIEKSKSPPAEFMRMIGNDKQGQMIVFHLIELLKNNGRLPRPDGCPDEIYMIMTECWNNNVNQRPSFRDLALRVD
row,SMILES,IC50 [nM]
1,CCN(CCC#N)S(=O)(=O)c1ccc(-c2ccnc(Nc3cccc(C)c3)n2)s1,< 100
2,CC(O)c1cccc(Nc2nccc(-c3ccc(-c4cccc(CC#N)c4)s3)n2)c1 (stereo not shown),< 100
3,CC(O)c1cccc(Nc2nccc(-c3ccc(-c4ccncc4)s3)n2)c1 (stereo not shown),< 100
4,CCN(CCC#N)S(=O)(=O)c1ccc(-c2ccnc(Nc3cccc(C(C)O)c3)n2)s1 (stereo not shown),< 100
5,CCC(=O)Nc1ccc(-c2ccnc(Nc3cccc(C)c3)n2)s1,< 100
6,CC(O)c1cccc(Nc2nccc(-c3ccc(S(=O)(=O)N(C)C)s3)n2)c1 (stereo not shown),< 100
7,CC(O)c1cccc(Nc2nccc(-c3ccc(-c4cccnc4)s3)n2)c1 (stereo not shown),< 100
8,OC1CCN(Cc2cccc(Nc3nccc(-c4ccc(CNc5ccccc5Cl)s4)n3)c2)CC1,< 100
9,CCN(CCC#N)C(=O)c1ccc(-c2ccnc(Nc3cccc(C(C)O)c3)n2)s1 (stereo not shown),< 100

# Further lines, results first:
row,IC50 [nM],SMILES
1,< 100,CNC(=O)c1ccc(-c2ccc(-c3ccnc(Nc4cccc(C(C)O)c4)n3)s2)cc1 (stereo not shown)
2,< 100,C[C@@H](NC(=O)c1ccc(-c2ccnc(Nc3cccc(CN4CCC(O)CC4)c3)n2)s1)c1ccccc1
3,< 100,CC(O)c1cccc(Nc2nccc(-c3ccc(S(=O)(=O)Cc4ccccc4)s3)n2)c1 (stereo not shown)
4,< 100,CN(C)C1CCN(c2cccc(Nc3nccc(-c4ccc(C(=O)NCc5ccco5)s4)n3)c2)C1 (stereo not shown)
5,< 100,C[C@@H](NC(=O)c1ccc(-c2ccnc(Nc3cccc(CN4CCN(CCO)CC4)c3)n2)s1)c1ccccc1
6,< 100,O=C(NCc1ccccc1)c1ccc(-c2ccnc(Nc3ccc(CCO)cc3)n2)s1
7,< 100,CN(Cc1ccccc1)C(=O)c1ccc(-c2ccnc(Nc3ccc(CCO)cc3)n2)s1
